{
  "source": "patent US20090023668A1",
  "about": "“Method for treating blepharitis” (priority 2006, published 2009)",
  "origin": "cited, not measured here",
  "details": "administered to an ocular area at a concentration of 0.1%",
  "data": [
    {"smiles": "C[C@@H]1C[C@H]2[C@@H]3CCC4=CC(=O)C=C[C@]4(C)[C@@]3(F)[C@@H](O)C[C@]2(C)[C@@]1(O)C(=O)CO", "note": "[dexamethasone]", "values": [
      {"measurement": "effect on intraocular pressure", "value": "can result in an increase in intraocular pressure"}
    ]}
  ]
}
